Where a name gives a salt, the structure may show the parent alone. Read-outs that look alike come from different tables or passages of the source.
Assays:
[1] = pharmacological effects, summary; details: in vivo
aconitine arrhythmia [2] = format: in vivo, rats
Procedure: (§1) The atrioventricular arrhythmia caused by aconitine is one of the most reliable models for forecasting the efficiency of the antiarrhythmic action of the novel preparation in clinics. The experiments were conducted on both narcotized and non-narcotized animals. The preparation was administered per os, intramuscularly, intraperitoneally and intravenously 5 to 15 minutes prior to or 3-5 minutes after the administration of aconitine.
The antiarrhythmic activity of the pharmaceutical composition according to the present invention upon administration thereof against the background of a developing aconitine arrhythmia (therapeutic effect) was studied on 110 narcotized rats. The preparation was intravenously administered at intervals of 3-6 minutes against the background of the originated arrhythmia.

[3] = system: cardiotoxic effect of the preparation; experiment: sodium bicarbonate at cardiotoxic effect of the preparation in dogs; details: toxic doses
cardiac contractions = experiment: strength of cardiac contractions in narcotized rats and guinea pigs; format: in vivo; details: intravenous, 0.1, 0.5, 1, 2 mg/kg
Procedure: (§2) To find out a negative inotropic effect on the heart tissue, two series of experiments have been carried out:
(2) the study of the preparation according to the present invention on the strength of cardiac contractions on narcotized (sodium ethaminal, 50-60 mg/kg intraperitoneally) rats and guinea pigs.

[4] = infiltration anesthesia in rabbits (intracutaneous); format: in vivo; details: 0.01-0.05% and 0.1% solutions
Procedure: The local anesthetic effect of the preparation was studied on 14 intact rabbits. […] The results of the experiments on determination of the ability of the preparation to cause infiltration anesthesia have shown that 10-15 minutes after intracutaneous administration, to rabbits, of 0.01-0.05% and 0.1% solutions of the preparation anesthesia occurs which is characterized by an increased threshold of a pain irritation; the duration of the effect is 20 to 48 hours. Under the same conditions of the experiment, the local anesthetic effect of a 0.5% solution of novocaine lasts for 90 minutes on the average.

aconitine arrhythmia [5] = experiment: prevention of aconitine arrhythmia in rats and dogs; format: in vivo
Procedure: as §1
The duration of the antiarrhythmic action of the preparation was studied on rats intravenously administered with aconitine 1, 2, 4, 6, 24 and 48 hours after the preparation administration per os.

[6] = system: cardiac arrhythmia caused by ligation of the descending branch of the left coronary artery; experiment: cardiac arrhythmia caused by ligation of the descending branch of the left coronary artery (Harris method) in dogs; format: in vivo
Procedure: The effect of the preparation according to the present invention on the cardiac arrhythmia caused by ligation of the descending branch of the left coronary artery by the Harris method was studied in experiments on dogs. The preparation according to the present invention was intravenously administered on the first and second post-operative days. Preliminarily, prior to every experiment 30 to 45 minutes before the administration of the preparation the background changes of the dogs' electrocardiogram (ECG) were recorded. […] In 40% thereof a full suppression of ectopic contractions was noticed for 3-3.5 hours, whereafter arrhythmia appeared with the intensity thereof not reaching the initial background during 7 hours.

carcinogenicity = format: in vivo; details: subcutaneously and per os, 0.5-2 mg/kg, 6 months, observation 2 years
[7] = system: central adreno- and cholinergic processes; experiment: central effects (sedative, adreno-, cholinergic, serotonin); details: in vivo
[8] = 6-month histological toxicity, dogs; format: in vivo; details: per os, 1 and 5 mg/kg, 6 months
frog's heart = experiment: amplitude of cardiac contractions of isolated frog's heart (Schtraube); details: concentration of 10^-6 -5.10^-5 g/ml
Description: as §2
(1) the study of the effect of the preparation of this invention on the amplitude of the cardiac contractions of a frog's heart isolated according to Schtraube;

[9] = diuresis and urine of rats; format: in vivo; details: 0.5-1 mg/kg
[10] = teratogenicity in pregnant rats; format: in vivo; details: 317 pregnant rats, 2,377 feti
[11] = system: calcium channels of the membrane of neurons; experiment: ion currents through the somatic membrane of mollusc neurons: calcium channels; format: cell-based, mollusca
Description: The study of the effect produced by the preparation of the present invention on ion currents through the somatic membrane of neurons has shown that it selectively interacts with calcium and potassium channels of the membrane of neurons of mollusca, whereby the currents along these channels are suppressed.

solubility = format: physicochemical
Procedure: The aerial portion and roots (tubers) of the plant Acontium leucostomum are disintegrated. The disintegrated air-dry raw material is wetted with a 3% solution of sodium carbonate and 1 hour thereafter is poured with chloroform. 12 hours afterwards the chloroform is drained and the plant is treated with a fresh portion of chloroform. There are thus obtained 8 extracts which are combined and evaporated under vacuum to a small volume. From the concentrated chloroform extract the alkaloids are recovered by means of a 2% sulphuric acid. The combined acid extracts are washed with chloroform, alkalinized by soda and extracted with chloroform. The chloroform extract is evaporated and the residue is treated with acetone to give a commercial product--lappaconitine which is recrystallized from methanol. Methanolic solution of lappaconitine and hydrobromic acid are mixed. […] M.p. is 216°-220° C., [α]D^24 =+27 (alcohol); C32 H44 O8 N2.HBr, molecular weight= 664.9.

[12] = system: lethal fibrillation of the heart induced by aconitine; experiment: prevention of lethal fibrillation of the heart induced by aconitine in rats; format: in vivo; details: 0.5 and 1 mg/kg
aconitine arrhythmia [13] = experiment: animal or person; format: in vivo, rats
Procedure: The assessment of the antiarrhythmic activity of the preparation was effected in acute and chronical experiments on rats, rabbits, cats and dogs. Various experimental models of arrhythmia were also used.
as §1
In doses of 0.2-0.5 mg/kg the preparation of this invention prevents the appearance of aconitine arrhythmia in 100% of the rats. […] Under similar experimental conditions a preliminary administration of novocainamide in the dose of 60 mg/kg intravenously produced an antiarrhythmic effect in 50% of the animals.

CCN1CC2(OC(=O)c3ccccc3NC(C)=O)CCC(OC)C34C1C(CC23)C1(O)CC(OC)C2CC4C1(O)C2OC (centres unmarked) [lappaconitine hydrobromide]
moderate additional effects [1]: moderate coronarydilating, spasmolytic, local anesthetic, anti-inflammatory and sedative effects | reduction of systemic arterial pressure and negative inotropic effect [1]: not accompanied by reduction of the systemic arterial pressure, and a negative inotropic effect on the cardiac tissue | animals with complete restoration of normal sinus rhythm (aconitine arrhythmia [2]; 0.1 mg/kg intravenously): 50% | time to restoration of normal sinus rhythm (aconitine arrhythmia [2]; 0.1 mg/kg, control arrhythmia lasts 120 minutes): 30 to 35 min | complete elimination of arrhythmia and restoration of correct sinus rhythm (aconitine arrhythmia [2]; 0.3 to 0.5 mg/kg): complete elimination of arrhythmia and restoration of the correct sinus rhythm in all the animals | time to complete elimination of arrhythmia (aconitine arrhythmia [2]; 0.3 to 0.5 mg/kg): 1 to 2 min | antiarrhythmic index (LD50/ED50) (aconitine arrhythmia [2]; against background of developing aconitine arrhythmia): 59 | arterial pressure in overdosing [3]: reduction of the arterial pressure | influence on amplitude of cardiac contractions (cardiac contractions): no influence on the amplitude of cardiac contractions | duration of infiltration anesthesia [4]: 20 to 48 h | onset of infiltration anesthesia ([4]; intracutaneous): 10 to 15 min | duration of antiarrhythmic action (aconitine arrhythmia [5]; aconitine model): up to 24 hours | animals in which development of aconitine arrhythmia is fully prevented (aconitine arrhythmia [5]; intravenous, 0.2-0.3 mg/kg, narcotized rats and dogs): 100% | animals in which development of aconitine arrhythmia is fully prevented (aconitine arrhythmia [5]; peroral, 1-2 mg/kg, dogs and intact rats): 100% | animals with antiarrhythmic effect ([6]; 0.5 mg/kg intravenously): 86% | animals with 100% antiarrhythmic effect over 5 hours ([6]; 1 mg/kg): 60% | animals with full suppression of ectopic contractions for 3-3.5 hours ([6]; 1 mg/kg): 40% | animals with full inhibition of ventricular extrasystole ([6]; 1 mg/kg intravenously): 100% | duration of full suppression of ectopic contractions ([6]; 1 mg/kg, in 40% of the animals): 3 to 3.5 h | time during which reappearing arrhythmia does not reach the initial background ([6]; 1 mg/kg, in 40% of the animals): 7 h | duration of 100% antiarrhythmic effect ([6]; 1 mg/kg, in 60% of the animals): over 5 hours | heart beat rate ([6]; accompanying reduction or arresting of arrhythmia, all experiments): reduction of the heart beat rate | time of appearance of antiarrhythmic effect ([6]; after intravenous administration): 5 to 15 min | activity relative to novocainamide (times more active) ([6]; dog, in vivo): 70 times | duration and rapidity of effect relative to novocainamide ([6]; dog, in vivo): considerably superior to it in the duration of the effect, but inferior to novocainamide in the rapidity of occurrence of the antiarrhythmic effect | relationship of effect to dose ([6]; dog, in vivo): in a direct relationship with the administered dose | carcinogenic properties (carcinogenicity): no carcinogenic properties | central sedative effect [7]: weak central sedative effect | effect on central adreno- and cholinergic processes [7]: does not provide any substantial effect on central adreno- and cholinergic processes | serotonin-negative effect [7]: weak | destructive changes of inner organs and tissues [8]: no destructive changes on the part of inner organs and tissues | negative inotropic effect, isolated heart (frog's heart): does not provide a negative inotropic effect | effect on diuresis [9]: no effect on diuresis of rats | protein and blood in urine ([9]; sulphanylic acid test and benzidine test): not detected | teratogenicity [10]: not a potentially teratogenic substance | effect on currents along calcium channels [11]: suppressed | solubility (solubility): soluble in water, alcohol, better in methanol | prevention of lethal fibrillation of the heart [12]: fully prevents a lethal fibrillation of the heart | minimal effective dose (aconitine arrhythmia [13]; Rattus norvegicus, read-out: dose from which the antiarrhythmic effect is revealed): 0.03 mg/kg | animals in which appearance of aconitine arrhythmia is prevented (aconitine arrhythmia [13]; doses of 0.2-0.5 mg/kg, rats): 100% | antiarrhythmic index (LD50/ED50) (aconitine arrhythmia [13]; prophylactic effect, aconitine arrhythmia): 118.0
